Experimental data reported in ChEMBL document CHEMBL5674860, “Optimized Dual-Glo Assay to identify co-culture-induced drug vulnerabilities in 3D CRC models” (2024).

Tests used:
Format in all cases: functional, Homo sapiens
Parameters in all cases: dose or concentration left out as unconfirmed
Colon cancer organoid [1] = experiment: Optimized Dual-Glo assay to identify co-culture induced drug vulnerabilities using donated chemical probes and chemogenomics kinase set in O06 CRC organoid and F06 CAF mono and co-culture. […] Cell viability is reported both mono and co-culture models.
Colon cancer organoid [2] = experiment: Optimized Dual-Glo assay to identify co-culture induced drug vulnerabilities using donated chemical probes and chemogenomics kinase set in O14 CRC organoid and F14 CAF mono and co-culture. […] Cell viability is reported both mono and co-culture models.
Colon cancer organoid [3] = experiment: Optimized Dual-Glo assay to identify co-culture induced drug vulnerabilities using donated chemical probes and chemogenomics kinase set in O20 CRC organoid and F20 CAF mono and co-culture. […] Cell viability is reported both mono and co-culture models.
[4] = Culture type Co-Culture, Transduced with Lucferase2-P2A-EGFP lentivirus
[5] = Culture type Co-Culture, Transduced with Renilla-dsRed lentivirus
[6] = Culture type Mono-Culture, Transduced with Lucferase2-P2A-EGFP lentivirus
[7] = Culture type Mono-Culture, Transduced with Renilla-dsRed lentivirus

Structure (SMILES) | Cell Viability (Colon cancer organoid [1]; [4]) [%] | Cell Viability (Colon cancer organoid [1]; [5]) [%] | Cell Viability (Colon cancer organoid [1]; [6]) [%] | Cell Viability (Colon cancer organoid [1]; [7]) [%] | Cell Viability (Colon cancer organoid [2]; [4]) [%] | Cell Viability (Colon cancer organoid [2]; [5]) [%] | Cell Viability (Colon cancer organoid [2]; [6]) [%] | Cell Viability (Colon cancer organoid [2]; [7]) [%] | Cell Viability (Colon cancer organoid [3]; [4]) [%] | Cell Viability (Colon cancer organoid [3]; [5]) [%] | Cell Viability (Colon cancer organoid [3]; [6]) [%] | Cell Viability (Colon cancer organoid [3]; [7]) [%]
CN1CCN(Cc2ccc(Nc3ncc(Cl)c(Nc4ccccc4S(=O)(=O)N(C)C)n3)cc2)CC1 [DUBERMATINIB] | 0.5937 | 0.7151 | 0.6913 | 2.891 | 0.6117 | 1.021 | 1.267 | 1.499 | 1.045 | 16.1981 | 1.218 | 12.0094
Cc1c(N2CCCC2)nc2ccc(Br)cc2c1C(=O)NC[C@H](CCC(=O)O)c1ccccc1Cl [BAY-6672] | 132.373 | 142.298 | 78.4477 | 99.1733 | 130.472 | 109.165 | 108.929 | 91.644 | 83.0644 | 119.315 | 90.6805 | 98.6918
CO[C@H]1CC[C@H](CNc2ccc(S(=O)(=O)NC(=O)c3ccc(N4CCN(CC5=C(c6ccc(Cl)cc6)CC(C)(C)CC5)CC4)cc3Oc3cnc4[nH]ccc4c3)cc2[N+](=O)[O-])CC1 [A-1211212] | 8.693 | 108.861 | 18.6642 | 86.311 | 35.4826 | 44.6988 | 55.1244 | 87.836 | 16.3832 | 159.244 | 32.5112 | 71.0169
CCC(=O)N1CCN(c2ccc(-n3c(=O)ccc4cnc5ccc(-c6cnc7ccccc7c6)cc5c43)cc2C(F)(F)F)CC1 [TORIN1] | 4.705 | 40.1911 | 4.406 | 17.8443 | 6.678 | 21.6908 | 9.433 | 15.03 | 7.384 | 44.8651 | 4.069 | 24.9993
CC(C)(O)CNc1ncc(-c2ccnc(Nc3ccnc(Cl)c3)n2)c(CC2CC2)n1 | 30.6205 | 168.017 | 58.1247 | 187.59 | 100.5 | 183.934 | 107.577 | 192.643 | 67.7034 | 172.835 | 40.8339 | 186.893
CCC(=O)N[C@@H]1CC[C@H](C(=O)N(C)c2ccc(-c3nc4ccccc4o3)cc2)C1 [BI 99990] | 135.832 | 173.184 | 107.841 | 87.7071 | 87.159 | 112.98 | 99.3505 | 100.76 | 115.817 | 121.154 | 99.9084 | 146.017
COc1ncc(F)cc1CNc1ccc(Cc2c[nH]c3ncc(C)cc23)c(F)n1 [PLX-5622] | 82.7626 | 63.3822 | 93.414 | 61.0678 | 95.8839 | 46.3569 | 130.226 | 44.2586 | 205.726 | 55.6932 | 133.198 | 66.7491
